Reference: patent US7838516B2, “15 β-substituted steroids having selective estrogenic activity” (priority 2004, dated 2010)

What was measured:
[1] = tested on: Cynomolgus monkey uterine tissue (endometrium); test: Histopathological evaluation of Cynomolgus monkey uterine tissue after 8 week oral treatment; format: in vivo; settings: 8 weeks, average score per category, grades 0-5
Description: Histopathological evaluation of Cynomolgus monkey uterine tissue was performed by a pathologist after an 8 week oral treatment with the test compound in four animals per treatment group. […] The following morphological characteristics were examined in H&E stained sections, based on the uterine phases of the normal menstrual cycle in Cynomolgus monkeys. • A. Follicular phase-like changes: • loose endometrial stroma • straight endometrial glands • hypertrophy of endometrial epithelium • mitotic figures • hypertrophy of myometrium • early angiogenesis (sprouting or early proliferation) • basal secretion • B. Luteal phase-like changes • pseudodecidually enlarged stromal cells • coiling of endometrial glands • late angiogenesis (spiral artery formation) • vacuolation of endometrial epithelium • luminal secretion • C. Ovariectomized or non-stimulated (atrophic) endometrium • compact endometrial stroma • atrophy of endometrial epithelium • atrophy of endometrial glands • atrophy of myometrium The severity of each of these above-mentioned findings was scored using a scale of grading: • grade 0: finding not present • grade 1: minimal, very few, very small • grade 2: slight, few, small • grade 3: moderate, moderate number, moderate size • grade 4: marked, many, large • grade 5: massive, extensive number, extensive size For each animal this grading was done. Then the average score per treatment group was calculated for each characteristic. Finally, an average score per category, atrophic, follicular- or luteal phase-like, was calculated from the average individual characteristics. A favourable endometrial safety profile for a compound is characterized by less compound-induced follicular phase-like activity combined with more luteal phase-like characteristics and/or atrophic endometrium.

[2] = tested on: progesterone-induced lordosis behavior in female ovariectomised rats; test: Facilitation of progesterone-induced lordosis behavior in female ovariectomised rats; format: in vivo, rat; settings: oral dosing at 1 mg/kg.day, three days pre-treatment, then progestagen
Description: Rat female sexual behavior is hormone dependent. In estrogen-primed female rats progesterone clearly enhances female sexual or lordosis behavior. However, progesterone is not effective in inducing lordosis in ovariectomised females that have not received estrogen (see also J. B. Becker, S. M. Breedlove and D. Crews (Eds.), Behavioral Endocrinology, 1992, pp. 82-84).
Females were pre-treated for three days with test compound followed by treatment with a progestagen on the fourth day. Four hours after progesterone treatment sexual behavior of the female rat was measured in the presence of a male rat by counting the number of lordosis responses during 10 minutes.

[3] = target: T1, human estrogen receptor α (hERα) (Homo sapiens, UniProt P03372); test: In vitro bioassay of estrogenic agonistic transactivation in recombinant CHO cells (hERα, rat oxytocin promoter, luciferase reporter); format: cell-based
T1 sequence (P03372 1-595): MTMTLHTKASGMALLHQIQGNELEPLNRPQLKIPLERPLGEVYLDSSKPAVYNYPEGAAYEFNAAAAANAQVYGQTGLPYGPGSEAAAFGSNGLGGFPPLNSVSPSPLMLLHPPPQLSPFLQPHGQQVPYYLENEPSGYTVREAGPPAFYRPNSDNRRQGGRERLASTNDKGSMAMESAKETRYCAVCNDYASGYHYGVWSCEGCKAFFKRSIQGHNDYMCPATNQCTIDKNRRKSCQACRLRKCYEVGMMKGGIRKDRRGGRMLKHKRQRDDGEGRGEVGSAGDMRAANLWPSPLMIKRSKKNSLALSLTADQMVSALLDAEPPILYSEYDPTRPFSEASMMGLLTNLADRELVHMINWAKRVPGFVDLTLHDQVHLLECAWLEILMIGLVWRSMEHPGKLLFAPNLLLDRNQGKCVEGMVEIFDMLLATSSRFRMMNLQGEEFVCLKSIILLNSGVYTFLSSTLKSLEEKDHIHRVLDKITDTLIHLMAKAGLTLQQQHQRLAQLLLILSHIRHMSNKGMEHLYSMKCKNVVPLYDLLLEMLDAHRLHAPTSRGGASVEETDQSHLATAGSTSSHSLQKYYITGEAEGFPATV
Description: (§1) The agonistic activity of compounds on the estrogen receptors was determined in an in vitro bioassay with recombinant Chinese hamster ovary (CHO) cells stably co-transfected with the human estrogen receptor α (hERα) or β (hERβ), the rat oxytocin promoter (RO) and the luciferase reporter gene (LUC). […] A more detailed description of the methodology can be found in De Gooyer M. E., Deckers G. H., Schoonen W. G. E. J., Verheul H. A. M. and Kloosterboer H. J., Steroids, Vol. 68, 2003, pp. 21-30.
(§2) ERα/ERβ selectivity is defined as the ratio ERα-potency/ERβ-potency.

[4] = target: human estrogen receptor β (hERβ) (Homo sapiens, UniProt Q92731); test: In vitro bioassay of estrogenic agonistic transactivation in recombinant CHO cells (hERβ, rat oxytocin promoter, luciferase reporter); format: cell-based
Sequence of human estrogen receptor β (hERβ) (Q92731 whole entry): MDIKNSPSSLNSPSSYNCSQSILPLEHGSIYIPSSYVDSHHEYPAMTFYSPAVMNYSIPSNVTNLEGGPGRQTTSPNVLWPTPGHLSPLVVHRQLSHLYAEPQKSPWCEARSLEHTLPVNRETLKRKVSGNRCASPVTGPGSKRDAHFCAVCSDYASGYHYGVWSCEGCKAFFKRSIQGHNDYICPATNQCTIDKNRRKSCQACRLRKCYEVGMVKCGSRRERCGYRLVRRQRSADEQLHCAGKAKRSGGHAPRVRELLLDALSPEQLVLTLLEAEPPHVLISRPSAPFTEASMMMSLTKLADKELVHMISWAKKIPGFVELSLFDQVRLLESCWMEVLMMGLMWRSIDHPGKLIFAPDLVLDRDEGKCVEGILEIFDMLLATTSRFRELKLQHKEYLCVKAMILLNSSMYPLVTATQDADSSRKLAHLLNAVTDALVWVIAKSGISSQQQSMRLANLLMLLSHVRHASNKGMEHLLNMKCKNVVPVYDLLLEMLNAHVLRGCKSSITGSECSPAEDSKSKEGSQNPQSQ
Description: as §1, §2

[5] = relative to 17β-estradiol: (EC50 17β-estradiol/EC50 test compound)×100%, CHO cells, luciferase

SMILES	Monkey Endometrial profile (scores): Atrophic ([1]; 200 μg/kg once daily oral)	Monkey Endometrial profile (scores): Follicular ([1]; 200 μg/kg once daily oral)	Monkey Endometrial profile (scores): Luteal ([1]; 200 μg/kg once daily oral)	in vivo estrogenic activity (facilitation of lordosis) [2]	ERα/ERβ-selectivity (potency) ([3]; ratio ERα-potency/ERβ-potency)	ERα-potency (%) [3, 5] [%]	agonist character at the estrogen β-receptor ([4]; in words)	ERβ-efficacy (%) ([4]; maximal activation relative to maximal activation by 17β-estradiol)	ERβ-potency (%) [4, 5] [%]	Monkey Endometrial profile (scores): Atrophic ([1]; 40 μg/kg once daily oral)	Monkey Endometrial profile (scores): Follicular ([1]; 40 μg/kg once daily oral)	Monkey Endometrial profile (scores): Luteal ([1]; 40 μg/kg once daily oral)
C[C@]12CC[C@@H]3c4ccc(O)cc4CC[C@H]3[C@@H]1CC[C@@H]2O [Compound Y, 17β-estradiol, reference compound]	0	3.6	0.2	–	–	–	–	–	–	–	–	–
C#CC1(O)CC(C)C2C3C(CC)Cc4cc(OC(=O)C(C)(C)C)ccc4C3CCC21C (stereo not drawn) [Compound 9a, 3-pivaloyloxy-7α-ethyl-15β-methyl-19-nor-17α-pregna-1,3,5(10)-trien-20-yne-17β-ol]	–	–	–	active estrogenic compounds	–	–	–	–	–	–	–	–
C#C[C@]1(O)C[C@@H](C)[C@H]2[C@@H]3[C@H](CC)Cc4cc(O)ccc4[C@H]3CC[C@@]21C [Compound 8, 7α-ethyl-15β-methyl-19-nor-17α-pregna-1,3,5(10)-trien-20-yne-3,17β-diol]	2.3	0.5	0.2	–	15.2	23.45	partial agonist	40	1.54	3.0	0.0	0.0
C#C[C@]1(O)CC[C@H]2[C@@H]3CCc4cc(O)ccc4[C@H]3CC[C@@]21C [Compound X, 17α-ethynyl-17β-estradiol, reference compound]	–	–	–	–	–	–	–	–	–	0	2.8	0.4
